Values of other authors in patent US20140080845A1, “USE OF ALLOPURINOL FOR THE TREATMENT OF HAND FOOT SKIN REACTION” (NOBERA PHARMA, S.L., priority 2009, published 2014).
Where two headings read alike, the source gives them in different places.

Tests used:
[1] = meta-analysis, treated patients

SMILES	solubility (in chloroform and in ether)	solubility (in dilute solutions of alkali hydroxides)	solubility (in water and alcohol)	summary incidence of HFSR, grade 3 [1] [%]	summary incidence of HFSR, grades 1-3 [1] [%]
Oc1ncnc2[nH]ncc12 [Allopurinol, 1H-pyrazolo[3,4-d] pyrimidin-4-ol]	practically insoluble	dissolves	very slightly soluble	–	–
CNC(=O)c1cc(Oc2ccc(NC(=O)Nc3ccc(Cl)c(C(F)(F)F)c3)cc2)ccn1 [sorafenib]	–	–	–	8.9	33.8
CCN(CC)CCNC(=O)c1c(C)[nH]c(/C=C2\C(=O)Nc3ccc(F)cc32)c1C [sunitinib]	–	–	–	5.5	18.9
